Data taken from US20160303138A1, “Combination Therapy Of Substituted Oxazolidinones” (Bayer Intellectual Property GMBH, priority 2006, published 2016).

System: arteriovenous shunt model in rats
Experiment: Antithrombotic effect in an arteriovenous shunt model in rats
Assay type: in vivo
Description: a) Determination of the Antithrombotic Effect in an Arteriovenous Shunt Model in Rats Fasting male rats (strain: HSD CPB:WU) were anesthetized by intraperitoneal administration of a Rompun/Ketavet solution (12 mg/kg/50 mg/kg). Thrombi were generated in an arteriovenous shunt in which a thrombogenic thread was secured, based on the method described by P C Wong et al. (Wong […], Nguan O, Watson […]. […] For this purpose, the left jugular vein and the right carotid artery were exposed. An 8 cm-long polyethylene catheter (PE60, Becton-Dickinson), followed by a 6 cm-long Tygon tube (R-3606, ID 3.2 mm, Kronlab), which contained a roughened, thrombogenic nylon thread (60×0.26 mm, […]) made into a double loop, was secured in the artery. A 2 cm-long polyethylene catheter (PE60, Becton-Dickinson) was secured in the jugular vein and connected via a 6 cm-long polyethylene catheter (PE160, Becton-Dickinson) to the Tygon tube. The tubes were filled with physiological saline solution before the shunt was opened. The extracorporeal circulation was maintained for 15 minutes. The shunt was then removed, and the nylon thread with the thrombus was immediately weighed. The empty weight of nylon thread has been determined before the start of the test. The FXa inhibitor (such as rivaroxaban) was administered to the animals intravenously, and acetylsalicylic acid (ASA) and/or ADP receptor antagonist (such as clopidogrel) was administered orally by gavage before setting up the extracorporeal circulation.

[1] = doses [mg/kg]: Example 44 0.01 iv, Clopi + ASA 1 po + 3 po, triple 0.01 iv + 1 po + 3 po
[2] = doses [mg/kg]: Example 44 0.03 iv, Clopi + ASA 1 po + 3 po, triple 0.03 iv + 1 po + 3 po

## O=C(NC[C@H]1CN(c2ccc(N3CCOCC3=O)cc2)C(=O)O1)c1ccc(Cl)s1 [Example 44, 5-Chloro-N-({(5S)-2-oxo-3-[4-(3-oxo-4-morpholinyl)phenyl]-1,3-oxazolidin-5-yl}methyl)-2-thiophencarboxamide]
[1]
  Antithrombotic effect (assessment in words): No effect
  Thrombus reduction [%]: 18%
[2]
  Antithrombotic effect (assessment in words): No effect
  Thrombus weight reduction [%]: 20%
Doses of Table 1
  Antithrombotic effect, summary of Table 1 in words: ineffective
